“And” between values parts separate entries of the source, which are not always exact repeats. Equal entries are not always repeated.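 Growth conditions: 96-well plates. Treatment: test compound, 48 hours, 5 concentrations. Analysis: linear interpolation between bracketing concentrations; unreached endpoints set to highest concentration. Abbreviation: GI50, concentration required for 50% inhibition of growth. At the TGI there is no net growth.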
Legend:
Experiment in all cases: NCI tumour cell line growth inhibition, 48 h
[1] = test system: MDA-N
[2] = test system: SNB-78 CNS
[3] = test system: M19-MEL melanoma
[4] = test system: RXF-631 renal
[5] = test system: P388 leukemia
[6] = test system: DLD-1 colon
[7] = test system: SN12K1 renal
[8] = test system: DMS 114 small cell lung
[9] = test system: P388/ADR leukemia
[10] = test system: XF 498 CNS
[11] = test system: KM20L2 colon
[12] = test system: HOP-18 NSCLC

SMILES	TGI [1]	TGI [2]	TGI [3] [µM]	TGI [4] [µM]	TGI [6] [µM]	TGI [11]	TGI [12]	TGI [8] [µM]	TGI [10] [µM]	also measured
COC1C(OC(=O)c2ccc(C)[nH]2)C(O)C(Oc2ccc3c(O)c(NC(=O)c4ccc(O)c(CC=C(C)C)c4)c(=O)oc3c2Cl)OC1(C)C (stereo not given)	> 100 µM									
CC1[C@@]2(CCC(C)(C)O2)O[C@@H]2C=C3C4CCC5Cc6nc7c(nc6C[C@@]5(C)C4C[C@H](O)[C@@]3(C)[C@]12O)CC1CCC2C3=C[C@H]4O[C@@]5(O[C@@](C)(CO)C[C@@H]5O)C(C)[C@@]4(O)[C@]3(C)[C@@H](O)CC2[C@]1(C)C7 (stereo not given in full)		0.464 µM and 0.312 µM	0.791	0.213	1.11	0.478 µM and 0.089 µM				GI50 [2]: 0.0015 µM; GI50 [3]: 0.336 µM; TGI [5]: 0.734 µM; GI50 [6]: 0.0805 µM; TGI [7]: 0.395 µM; GI50 [8]: 0.805 nM; TGI [9]: 1.16 µM; GI50 [10]: 0.00488 µM; GI50 [11]: 0.00289 µM
O=[N+]([O-])c1cccc(/C=N/Nc2ccc3ccccc3n2)c1O	34.3 µM									
CC(C)(O)C1COC2=C1C(=O)c1ccccc1C2=O (stereo not given)	33.3 µM									
O=C(N/C(=C\c1ccc([N+](=O)[O-])cc1)c1nc2ccccc2s1)c1ccccc1		> 100 µM	53.9		58.7	> 100 µM	61.9 µM	68.4	> 100	
CC(C)(Oc1ccc(-c2cccc3ccccc23)cc1)C(=O)O	> 100 µM									
O=P(CN1CCOCC1)(c1ccccc1)c1ccccc1		> 100 µM	> 100	> 100				> 100	> 100	
CCCC1C[C@H]2CCCCN2[C@H]2CCCN12 (stereo not given in full)		> 100 µM		> 100	> 83.6	> 100 µM	> 100 µM	> 86.9	> 100	
O=C1CCC(c2ccccc2)=NN1c1nc2ccccc2s1	> 100 µM	> 100 µM	> 100		> 100		> 100 µM	> 100	86.7	
O=C(Nc1ccn(C2CC(O)C(COC(c3ccccc3)(c3ccccc3)c3ccccc3)O2)c(=O)n1)c1ccccc1 (stereo not given)	3.99 µM									
CCCCCCCCCCCCCCCCCc1nc(Cl)nc(Cl)c1Cl	> 100 µM									
COC(=O)[C@@]12OC[C@]34[C@H]([C@@H](O)[C@@H]1O)[C@@]1(C)CC(=O)C(O)=C(C)[C@@H]1C[C@H]3OC(=O)[C@H](OC(=O)/C=C(\C)C(C)C)[C@@H]24	0.0345 µM and 0.0321 µM	0.00899 µM and 0.0427 µM and 0.0707 µM					0.016 µM and 0.0848 µM	0.000286	0.0212	GI50 [2]: 0.00089 µM; GI50 [12]: 0.00161 µM; GI50 [1]: 0.02 µM; TGI [5]: 0.109 µM; TGI [7]: 0.0541 µM; GI50 [8]: 0.0354 nM; TGI [9]: 0.692 µM
COC(=O)C1=NC(=S)NC(c2ccccc2)C1c1nc2ccccc2o1 (stereo not given)		> 50 µM	> 50		> 50	> 50 µM	> 50 µM	> 50	> 50	
NNc1c(C(N)=O)c2c(N)ncnc2n1C1OC(CO)C(O)C1O (stereo not given)	0.144 µM									
COc1ccc(/C=C/C(=O)c2c(-c3ccccc3)nn(C)c(=O)c2N2CC2C)cc1 (stereo not given)		63.1 µM	> 100		> 100	80 µM	> 100 µM	90.6		
FC(F)(F)c1ccccc1C1SCc2nc3ccccc3n21 (stereo not given)		> 100 µM	> 100		> 100		> 100 µM	> 100		
COC(=O)C(=O)C(C(=O)C(=O)Nc1ccc([N+](=O)[O-])cc1)c1nc2ccccc2[nH]c1=O (stereo not given)			> 100	> 100	> 100	> 100 µM	> 100 µM	> 100	> 100	
O=C(/C=C/c1ccccc1)c1ccc(Cl)cc1Cl		49.3 µM	44.5	> 100	33.3	45.7 µM	60.5 µM	33.3		
COC(=O)CC1(O)C(=O)OCc2c1cc1n(c2=O)Cc2c-1nc1ccccc1c2OC (stereo not given)		> 100 µM	> 100	> 100	> 100	> 100 µM	> 100 µM	> 33.1	40	
Cc1cc(C)c2nc3c(c(C(O)C4CCCCN4)c2c1)CC/C3=C\c1ccc(Cl)cc1 (stereo not given)	> 100 µM									

SMILES	TGI [1]	TGI [2]	TGI [3] [µM]	TGI [4] [µM]	TGI [6] [µM]	TGI [11]	TGI [12]	TGI [8] [µM]	TGI [10] [µM]	also measured
CC1NOC(=O)C1N=Nc1cccc(Cl)c1 (stereo not given)		> 100 µM	91.7		> 100	> 100 µM	> 100 µM	61.7	72	
O=C1/C(=C/c2ccc(Cl)cc2)CCC1CNc1ccc(Cl)cc1 (stereo not given)	40.4 µM	> 100 µM	> 50.4		10.7	12.6 µM	> 74.5 µM	> 48.3	29.5	
CC1(C)CC(O)CC(C)(C)N1O	> 100 µM									
COc1ccc(/C=C/C(=N\NC(=O)c2ccccc2)c2sc(Nc3ccc([N+](=O)[O-])cc3)nc2C)cc1OC		61.9 µM	70.6		28.8	97.6 µM	85 µM	62.7	29.5	
CN(C)CCCN1c2ccccc2Sc2ccc(C(F)(F)F)cc21	26.3 µM	33.9 µM	32.3		31.9	23.7 µM		34		
COC(=O)Cc1cc(=O)n2c3ccccc3n(C)c2c1C#N		> 100 µM	> 100		> 100	> 100 µM		> 100	> 100	
C/C=C/C=C/c1cc2cc3c(c(O)c2c(=O)[nH]1)C1(CC3)C(O)=c2c(=O)c3c(=O)cc(OC)c(=O)c=3c(=O)c2=C1O (stereo not given)	11.9 µM	> 56.7 µM	13	> 100	17.9	10.9 µM	7.47 µM	4.83		
C=C1C(=O)OC2CC(C)C(/C=C/C(C)=O)=CCC12 (stereo not given)	> 100 µM									
O=c1[nH]c2cc(Cl)ccc2nc1/C(=N\Nc1ccccc1)C(O)c1ccc2c(c1)OCO2 (stereo not given)	> 100 µM									
Cc1nc2c(C)ccc([N+](=O)[O-])c2c(NCCCN(C)C)c1C	> 100 µM									
C=CCNC(=S)NNC(=O)c1c(C)nc2sccn12			> 100	> 100	> 100	> 100 µM	> 100 µM	> 100	> 100	
CC(=O)CCC1(c2ccccc2)OC(=O)C(C#N)=C1c1ccccc1 (stereo not given)		> 100 µM	> 100	> 100	> 100	> 100 µM		> 100	> 100	
Cc1cc(Cl)ccc1N=C1NC(=O)C(CC(=O)Nc2cccc(Cl)c2)S1 (stereo not given)		> 100 µM	> 100		> 100	> 100 µM	> 100 µM	> 100	> 100	
C[N+](C)(C)CC1CCC(C[N+](C)(C)C)C1=NO (stereo not given)		> 100 µM	> 100		> 100	> 100 µM	> 100 µM		> 100	
O=S(=O)(c1ccccc1)N1CCCC(c2ccccc2)CC1 (stereo not given)	> 100 µM									
Cc1c(Cl)ccc2c1NC(=O)C2(O)CC(=O)c1ccc(Cl)cc1 (stereo not given)		> 100 µM	26.9	> 100	> 100	> 100 µM	> 100 µM	37.1		
CC(C)(C)N/N=C(/Cc1nc2c3c(ccc2[nH]c1=O)C(=O)c1ccccc1C3=O)C(=O)NC1=C(Cl)C(=O)c2ccccc2C1=O	28.3 µM									
N#C/C(=C\c1ccc(O)cc1)C(N)=O		> 100 µM	> 100	> 100	> 100	> 100 µM		> 100	> 100	TGI [5]: > 100 µM; TGI [7]: > 100 µM; TGI [9]: > 100 µM
O=[N+]([O-])c1ccccc1N=Nc1c(O)[nH]c2c(Cl)cccc12	> 100 µM									
CCOc1ccc(NC(=O)CC2SC(=Nc3ccc(C)cc3)NC2=O)cc1 (stereo not given)		> 100 µM	> 100	> 100	> 100	> 100 µM		> 100	> 100	

Source: PubChem BioAssay (NCI)
